In ChEMBL document CHEMBL1201862, “PubChem BioAssay data set” (2004):
Activity calls are given as the source filed them.

What was measured:
[1] = target: T1, Kappa-type opioid receptor (Homo sapiens, UniProt P41145); experiment: kappa opioid receptor activation by imaging – image-based, set 3, SAR follow-up (AID 488833); format: functional
[2] = target: Mu-type opioid receptor (Homo sapiens, UniProt P35372); experiment: SAR Analysis of Agonists of the MOR Receptor using an Image-Based Assay - Set 3. [Related pubchem assays (depositor defined):AID1777, AID1785, AID1786, AID1966, AID2133, AID2136, AID2284, AID2285, AID2352]; format: functional
[3] = target: Delta-type opioid receptor (Homo sapiens, UniProt P41143); experiment: SAR Analysis of Agonists of the DOR Receptor using an Image-Based Assay - Set 3. [Related pubchem assays (depositor defined):AID1777, AID1786]; format: functional
[4] = target: T1, Kappa-type opioid receptor; experiment: SAR analysis of small molecule agonists of the kappa opioid receptor via a luminescent beta-arrestin assay - Set 3. [Related pubchem assays (depositor defined):AID1777, AID1785, AID1786, AID1966, AID2133, AID2136, AID2284, AID2500]; format: functional
[5] = test system: BJ; experiment: BJ-TERT fibroblast viability loss – cell-based, RAS-independent, luminescence, dose response (AID 1933); format: functional; conditions: Homo sapiens
[6] = target: T2, Heat shock factor protein 1 (Mus musculus, UniProt P38532); experiment: decrease of HSF1-responsive luciferase luminescence – cell-based, NIH3T3, dose retest, confirmation (AID 2382); format: functional;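 further: NIH3T3 fibroblasts with HSF1-driven luciferase reporter stressed by proteasome inhibitor MG132; luminescence from HSF1-driven luciferase expression after 8 hours of MG132 stress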
T2 sequence (P38532 whole entry): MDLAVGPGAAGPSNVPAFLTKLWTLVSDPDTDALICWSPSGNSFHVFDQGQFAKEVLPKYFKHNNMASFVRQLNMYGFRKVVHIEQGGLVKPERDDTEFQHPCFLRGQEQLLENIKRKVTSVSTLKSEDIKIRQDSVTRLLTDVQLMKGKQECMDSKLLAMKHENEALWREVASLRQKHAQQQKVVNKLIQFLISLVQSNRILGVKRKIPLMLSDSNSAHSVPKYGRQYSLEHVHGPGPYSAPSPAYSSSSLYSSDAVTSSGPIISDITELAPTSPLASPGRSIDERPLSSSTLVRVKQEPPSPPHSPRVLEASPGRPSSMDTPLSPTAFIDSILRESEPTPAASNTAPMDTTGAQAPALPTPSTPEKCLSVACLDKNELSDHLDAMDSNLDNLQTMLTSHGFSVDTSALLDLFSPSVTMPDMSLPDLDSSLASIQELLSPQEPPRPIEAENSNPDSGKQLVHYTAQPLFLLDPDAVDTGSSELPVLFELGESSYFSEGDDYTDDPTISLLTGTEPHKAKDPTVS

[7] = test system: BJ; experiment: cells; format: functional, cell-based; conditions: Homo sapiens
[8] = microbe, parasite or virus in culture; format: functional; conditions: Mycobacterium tuberculosis
[9] = test system: BJ; experiment: BJ-TERT-LT-ST fibroblast viability loss – cell-based, RAS-independent, luminescence, dose response (AID 1935); format: functional; conditions: Homo sapiens;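 further: BJ fibroblasts immortalized with TERT plus LT and ST oncogenes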
[10] = DRD fibroblast viability loss – cell-based, non-viral oncogenic, luminescence, dose response (AID 1934); format: functional; conditions: Homo sapiens
[11] = Intein inhibitors as potential Tuberculosis drugs, a cytotoxicity screen. [Related pubchem assays (depositor defined):AID2221, AID2223, AID434968, AID435010, AID449749, AID449750, AID489010]; format: functional
[12] = target: T3, Replicative DNA helicase DnaB (Mycobacterium tuberculosis, UniProt P9WMR3); experiment: DnaB intein splicing inhibitors, dose response, biochemical, cell-free fluorescence (AID 449749); format: functional
T3 sequence (P9WMR3 whole entry): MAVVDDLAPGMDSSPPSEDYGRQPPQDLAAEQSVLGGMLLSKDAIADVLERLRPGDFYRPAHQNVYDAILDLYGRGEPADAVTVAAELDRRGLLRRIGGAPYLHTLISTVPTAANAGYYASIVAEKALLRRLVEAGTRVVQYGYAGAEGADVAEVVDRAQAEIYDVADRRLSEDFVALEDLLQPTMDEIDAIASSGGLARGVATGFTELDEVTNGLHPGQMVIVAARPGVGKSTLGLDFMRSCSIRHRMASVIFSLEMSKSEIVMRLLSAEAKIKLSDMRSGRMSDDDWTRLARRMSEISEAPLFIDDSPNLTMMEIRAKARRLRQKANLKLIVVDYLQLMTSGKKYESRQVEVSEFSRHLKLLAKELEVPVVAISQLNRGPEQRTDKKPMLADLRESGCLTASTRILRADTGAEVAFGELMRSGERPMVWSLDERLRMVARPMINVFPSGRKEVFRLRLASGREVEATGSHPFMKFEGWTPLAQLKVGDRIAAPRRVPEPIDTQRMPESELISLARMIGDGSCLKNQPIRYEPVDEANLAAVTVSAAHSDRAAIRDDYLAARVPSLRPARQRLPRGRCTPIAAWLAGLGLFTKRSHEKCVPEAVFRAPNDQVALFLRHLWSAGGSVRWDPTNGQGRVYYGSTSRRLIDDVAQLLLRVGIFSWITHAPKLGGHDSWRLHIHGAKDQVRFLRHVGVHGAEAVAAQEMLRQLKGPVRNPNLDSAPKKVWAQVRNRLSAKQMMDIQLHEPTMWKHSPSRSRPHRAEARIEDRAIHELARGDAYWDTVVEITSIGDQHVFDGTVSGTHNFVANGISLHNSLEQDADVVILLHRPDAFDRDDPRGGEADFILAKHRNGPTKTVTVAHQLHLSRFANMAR

[13] = test system: BJ; experiment: growth inhibition of engineered Ras-driven BJ cells – cell-based, alamar blue fluorescence, cherrypicked samples, dose response (AID 2631); format: functional; conditions: Homo sapiens;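 further: confirmatory dose-response assay in RAS-dependent BJ fibroblasts engineered with TERT, LT and ST, with cytotoxicity read by fluorescence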
[14] = target: T4, Protein RecA (Mycobacterium tuberculosis, UniProt P9WHJ3); experiment: Fluorescence Cell-Free Homogeneous Dose Retest to Identify Inhibitors of RecA-Intein Splicing Activity. [Related pubchem assays (depositor defined):AID2097, AID2223, AID489010, AID492950]; format: functional
T4 sequence (P9WHJ3 whole entry): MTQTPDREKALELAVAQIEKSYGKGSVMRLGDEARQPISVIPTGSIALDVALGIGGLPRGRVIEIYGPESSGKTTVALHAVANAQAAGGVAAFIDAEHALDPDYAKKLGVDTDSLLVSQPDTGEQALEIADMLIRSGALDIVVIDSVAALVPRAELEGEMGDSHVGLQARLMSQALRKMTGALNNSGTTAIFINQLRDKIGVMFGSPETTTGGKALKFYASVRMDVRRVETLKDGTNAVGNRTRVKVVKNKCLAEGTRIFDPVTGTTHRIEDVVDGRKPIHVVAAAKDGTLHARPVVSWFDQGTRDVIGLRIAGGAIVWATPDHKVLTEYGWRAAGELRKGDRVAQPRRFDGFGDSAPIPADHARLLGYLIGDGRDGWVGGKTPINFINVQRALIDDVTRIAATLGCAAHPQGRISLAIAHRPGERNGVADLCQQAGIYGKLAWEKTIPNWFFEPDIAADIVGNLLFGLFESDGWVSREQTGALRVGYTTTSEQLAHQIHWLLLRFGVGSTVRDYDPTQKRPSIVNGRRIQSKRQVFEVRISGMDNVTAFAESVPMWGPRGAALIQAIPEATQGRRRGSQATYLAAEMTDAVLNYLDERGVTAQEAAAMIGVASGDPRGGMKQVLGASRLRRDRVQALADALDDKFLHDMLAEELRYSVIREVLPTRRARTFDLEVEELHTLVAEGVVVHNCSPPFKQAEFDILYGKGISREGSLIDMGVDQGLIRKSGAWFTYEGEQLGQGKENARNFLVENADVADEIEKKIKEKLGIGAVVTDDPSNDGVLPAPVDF

[15] = target: T5, Runt-related transcription factor 1/Core-binding factor subunit beta (Homo sapiens, UniProt Q01196+Q13951); experiment: disruptors of Runt domain/CBFb-SMMHC interaction – biochemical, FRET, Cerulean-Runt, Venus-CBFb-SMMHC, uHTS, […] (AID 1434); format: protein assay
[16] = target: T5, Runt-related transcription factor 1/Core-binding factor subunit beta; experiment: Runt domain/CBFb-SMMHC interaction disruptors – biochemical, TR-FRET (AID 1438); format: protein assay

T1 sequence (P41145 whole entry): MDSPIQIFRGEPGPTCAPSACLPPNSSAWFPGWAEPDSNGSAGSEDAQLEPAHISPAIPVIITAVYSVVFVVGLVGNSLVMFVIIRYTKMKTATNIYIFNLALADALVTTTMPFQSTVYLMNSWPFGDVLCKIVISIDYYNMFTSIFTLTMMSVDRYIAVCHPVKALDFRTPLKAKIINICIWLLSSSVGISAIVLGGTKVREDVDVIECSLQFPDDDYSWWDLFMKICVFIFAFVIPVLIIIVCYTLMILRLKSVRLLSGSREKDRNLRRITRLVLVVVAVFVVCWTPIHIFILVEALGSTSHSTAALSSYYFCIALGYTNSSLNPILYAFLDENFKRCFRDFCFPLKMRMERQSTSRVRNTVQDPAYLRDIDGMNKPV
T5 sequence (Q01196 whole entry, the tested form may be a part): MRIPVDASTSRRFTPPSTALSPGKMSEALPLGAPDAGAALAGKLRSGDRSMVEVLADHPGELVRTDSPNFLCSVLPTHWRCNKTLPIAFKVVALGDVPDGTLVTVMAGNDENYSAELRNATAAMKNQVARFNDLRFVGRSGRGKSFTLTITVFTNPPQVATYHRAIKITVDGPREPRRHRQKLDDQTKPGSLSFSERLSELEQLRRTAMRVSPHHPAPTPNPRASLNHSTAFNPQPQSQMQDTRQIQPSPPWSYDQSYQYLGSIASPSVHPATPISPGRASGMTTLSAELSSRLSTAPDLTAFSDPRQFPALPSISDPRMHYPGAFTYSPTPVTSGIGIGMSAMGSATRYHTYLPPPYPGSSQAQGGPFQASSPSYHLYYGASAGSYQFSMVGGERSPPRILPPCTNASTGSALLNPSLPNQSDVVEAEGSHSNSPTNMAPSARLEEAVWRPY
T5 sequence (Q13951 whole entry, the tested form may be a part): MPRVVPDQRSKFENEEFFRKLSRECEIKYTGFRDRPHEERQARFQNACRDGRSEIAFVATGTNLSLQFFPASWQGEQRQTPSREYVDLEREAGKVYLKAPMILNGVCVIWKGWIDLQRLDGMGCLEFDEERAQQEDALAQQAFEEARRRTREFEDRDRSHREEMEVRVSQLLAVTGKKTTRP
Sequence of Mu-type opioid receptor (P35372 whole entry): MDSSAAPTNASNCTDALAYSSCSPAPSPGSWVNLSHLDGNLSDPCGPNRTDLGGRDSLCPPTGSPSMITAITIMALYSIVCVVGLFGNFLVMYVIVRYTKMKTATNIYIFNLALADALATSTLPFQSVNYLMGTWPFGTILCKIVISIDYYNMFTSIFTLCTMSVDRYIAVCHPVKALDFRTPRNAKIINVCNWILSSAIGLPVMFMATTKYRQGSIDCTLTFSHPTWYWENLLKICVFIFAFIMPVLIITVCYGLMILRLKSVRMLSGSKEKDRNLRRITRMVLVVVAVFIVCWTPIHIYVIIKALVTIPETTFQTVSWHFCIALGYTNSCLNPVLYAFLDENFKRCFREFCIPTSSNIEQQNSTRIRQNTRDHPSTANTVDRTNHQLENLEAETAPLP
Sequence of Delta-type opioid receptor (P41143 whole entry): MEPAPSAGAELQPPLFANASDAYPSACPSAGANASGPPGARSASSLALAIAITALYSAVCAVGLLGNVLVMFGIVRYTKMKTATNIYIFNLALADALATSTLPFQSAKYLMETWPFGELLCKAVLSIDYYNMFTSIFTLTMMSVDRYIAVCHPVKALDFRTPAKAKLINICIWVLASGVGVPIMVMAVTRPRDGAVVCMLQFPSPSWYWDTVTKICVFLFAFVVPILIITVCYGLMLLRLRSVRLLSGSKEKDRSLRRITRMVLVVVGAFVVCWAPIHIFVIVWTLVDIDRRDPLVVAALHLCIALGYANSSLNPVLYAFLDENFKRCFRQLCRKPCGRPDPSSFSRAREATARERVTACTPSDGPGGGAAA

Which EC50 [1] does the source give for `COc1cccc(CSc2nnc(-c3ccccn3)n2Cc2cccs2)c1` here?
The EC50 was 12.2 µM (inactive).

And the EC50 [2]?
The EC50 was > 32 µM (inactive).

And the EC50 [3]?
The EC50 was > 32 µM (inactive).

What about the EC50 [4] of the same compound?
Its EC50 is 8.72 µM (active).

For `COc1cc2c(cc1OC)C(c1cc(Br)ccc1F)N(C(=O)CCl)CC2` (stereo unspecified), which EC50 [5] is on record?
Its EC50 is 2.7 µM (inconclusive).

And the EC50 [6]?
Its EC50 is 3.09 µM (active).

What about the EC50 [7] of the same compound?
The EC50 was 6.1 µM (active).

And the CC50 [8]?
Its CC50 is 5.64 µM (active).

And the EC50 [9]?
The EC50 was 5.02 µM (inconclusive).

And the EC50 [10]?
The EC50 was 5.12 µM (active).

What about the CC50 [11] of the same compound?
Its CC50 is 4.2 µM (active).

And the AC50 [12]?
The AC50 was 4.29 µM (active).

What about the EC50 [13] of the same compound?
The EC50 was 1.41 µM (active).

What about the EC50 [14] of the same compound?
The EC50 was 800 nM (active).

With `COC(=O)C1=C(CSc2nc3c(cc2C#N)CN(C)CC3)OC(N)=C(C#N)C1c1ccccc1F` (stereo unspecified) as the compound, how does the IC50 [15] read?
Its IC50 is > 100 µM (inactive).

And the IC50 [16]?
Its IC50 is 60.9 µM (inactive).
